# Numbers after ± are expanded uncertainties.
# Key:
# [1] = Crystal; DTA
# [2] = Molar enthalpy of transition or fusion; conditions: Crystal; DSC
smiles,measurement,setting,value
"CC1=C(O)C(=O)C(C)O1 (configuration not stated) [4-hydroxy-2,5-dimethyl-3(2H)-furanone]",Normal melting temperature,[1],80.8 ± 1.6 °C
same,Molar enthalpy of transition or fusion,[2],4.61 ± 0.12 kcal/mol

# From the NIST ThermoML archive (doi:10.1016/j.jct.2015.08.028)
